From DBAASP
Converted amounts (≈) assume the structure as drawn. “And” between values parts separate entries of the source, which are not always exact repeats. Identical values can stand only once.

How the values were obtained:
Test in all cases: ≥ marks a high value that may be exact or a test limit, other limits are often not marked, values filed in µg/mL are converted to µM
[1] = system: Klebsiella aerogenes ATCC 13048
[2] = system: Enterococcus faecium ATCC 700221
[3] = system: Pseudomonas aeruginosa ATCC 27853
[4] = system: Staphylococcus aureus ATCC 33591
[5] = system: Staphylococcus epidermidis ATCC 51625
[6] = system: Pseudomonas aeruginosa ATCC 19660
[7] = system: Streptococcus pneumoniae ATCC 49619
[8] = system: Acinetobacter baumannii ATCC 17978D-5
Listeria monocytogenes = system: Listeria monocytogenes
[9] = system: Staphylococcus aureus ATCC 25923
[10] = system: Staphylococcus epidermidis ATCC 9709
Salmonella typhimurium = system: Salmonella typhimurium
Escherichia coli O157 = system: Escherichia coli O157
[11] = system: Micrococcus luteus ATCC 10420
[12] = system: Escherichia coli ATCC 25404
Klebsiella oxytoca = system: Klebsiella oxytoca
Morganella morganii = system: Morganella morganii
Citrobacter freundii = system: Citrobacter freundii
[13] = system: Staphylococcus aureus ATCC 1717
Enterococcus faecalis = system: Enterococcus faecalis
[14] = system: Escherichia coli ATCC 25922
Enterobacter cloacae = system: Enterobacter cloacae
Escherichia coli NDM-1 = system: Escherichia coli NDM-1
[15] = system: Bacillus subtilis ATCC 23857
[16] = system: Klebsiella pneumoniae NDM-1
Bacillus subtilis 168 = system: Bacillus subtilis 168
Escherichia coli ESBL = system: Escherichia coli ESBL
Escherichia coli BL21 = system: Escherichia coli BL21
Staphylococcus aureus = system: Staphylococcus aureus
Vibrio cholerae N16961 = system: Vibrio cholerae N16961
Klebsiella pneumoniae = system: Klebsiella pneumoniae
[17] = system: Pseudomonas aeruginosa ATCC 15442
Escherichia coli D31 = system: Escherichia coli D31
[18] = system: Candida albicans ATCC 10231
[19] = system: Streptococcus mutans ATCC 25175
[20] = system: Enterococcus faecalis 1F-1
[21] = system: Bacillus licheniformis ATCC 14580
[22] = system: Bacillus cereus ATCC 14579
[23] = system: Staphylococcus aureus ATCC 29213
[24] = system: Bacillus subtilis ATCC 6051
[25] = system: Bacillus amyloliquefaciens ATCC 23842
[26] = system: Salmonella enterica ATCC H9812
[27] = system: Proteus mirabilis ATCC 35659
[28] = system: Enterococcus faecium 5F-10
[29] = system: Pseudomonas aeruginosa PAO1

C[C@H](NC(=O)[C@H](Cc1ccccc1)NC(=O)[C@H](C)NC(=O)[C@H](Cc1ccccc1)NC(=O)[C@H](C)NC(=O)[C@H](Cc1ccccc1)NC(=O)[C@H](CCCCN)NC(=O)[C@H](CCCCN)NC(=O)[C@H](C)NC(=O)[C@H](Cc1ccccc1)NC(=O)[C@H](CCCCN)NC(=O)[C@H](CCCCN)NC(=O)[C@H](Cc1ccccc1)NC(=O)[C@H](CCCCN)NC(=O)[C@H](CCCCN)NC(=O)[C@H](C)NC(=O)[C@H](Cc1ccccc1)NC(=O)[C@H](CCCCN)NC(=O)[C@H](CCCCN)NC(=O)[C@H](C)NC(=O)[C@@H](N)Cc1ccccc1)C(=O)N[C@@H](Cc1ccccc1)C(=O)O [FAKKFAKKFKKFAKKFAFAFAF]
MIC [1]: 12.1 µM (≈ 32 µg/mL) | MIC [2]: 12.1 µM (≈ 32 µg/mL) | MIC [3]: 12.1 µM (≈ 32 µg/mL) | MIC [4]: 24.2 µM (≈ 64 µg/mL) | MIC [5]: 3.02 µM (≈ 8 µg/mL) | MIC [6]: 12.1 µM (≈ 32 µg/mL) | MIC [7]: 6.04 µM (≈ 16 µg/mL) | MIC [8]: 12.1 µM (≈ 32 µg/mL)

CC(C)C[C@H](NC(=O)[C@H](CC(C)C)NC(=O)[C@H](CCCCN)NC(=O)[C@H](CO)NC(=O)[C@H](CC(C)C)NC(=O)[C@H](C)NC(=O)[C@H](Cc1cnc[nH]1)NC(=O)[C@H](Cc1c[nH]c2ccccc12)NC(=O)[C@H](CC(C)C)NC(=O)[C@H](C)NC(=O)CNC(=O)[C@H](CC(C)C)NC(=O)[C@@H](N)Cc1ccccc1)C(=O)O [FLGALWHALSKLL]
MIC (Listeria monocytogenes): 8 µM (≈ 11.8 µg/mL) | MIC [9]: 8 µM (≈ 11.8 µg/mL) | MIC [10]: 4 µM (≈ 5.88 µg/mL) | MIC (Salmonella typhimurium): ≥ 64 µM | MIC (Escherichia coli O157): ≥ 64 µM | MIC [11]: 2 µM (≈ 2.94 µg/mL) | MIC [12]: ≥ 64 µM

CC[C@H](C)[C@H](NC(=O)CNC(=O)[C@@H](NC(=O)[C@H](CCCCN)NC(=O)[C@H](C)NC(=O)[C@@H](NC(=O)[C@@H](NC(=O)CN)[C@@H](C)CC)[C@@H](C)CC)[C@@H](C)CC)C(=O)N[C@@H](CCCCN)C(=O)N[C@H](C(=O)N[C@@H](CCCCN)C(=O)N[C@@H](CCCCN)C(N)=O)[C@@H](C)CC [GIIAKIGIKIKK]
MIC (Klebsiella oxytoca): ≥ 64 µM | MIC (Morganella morganii): ≥ 128 µM | MIC (Citrobacter freundii): 22.6 µM (≈ 29 µg/mL) | MIC [13]: ≥ 128 µM | MIC (Enterococcus faecalis): ≥ 128 µM | MIC [14]: 32 µM (≈ 41 µg/mL) | MIC (Enterobacter cloacae): 22.6 µM (≈ 29 µg/mL) | MIC (Escherichia coli NDM-1): 16 µM (≈ 20.5 µg/mL) | MIC [15]: 16 µM (≈ 20.5 µg/mL) | MIC [16]: 22.6 µM (≈ 29 µg/mL)

CC[C@H](C)[C@H](NC(=O)CN)C(=O)N[C@H](C(=O)N[C@@H](CCCCN)C(=O)N[C@@H](CCCCN)C(=O)N[C@H](C(=O)N[C@H](C(=O)N[C@@H](CCCCN)C(=O)N[C@@H](CCCCN)C(=O)N[C@H](C(=O)N[C@H](C(=O)N[C@@H](CCCCN)C(=O)N[C@@H](CCCCN)C(N)=O)[C@@H](C)CC)[C@@H](C)CC)[C@@H](C)CC)[C@@H](C)CC)[C@@H](C)CC [GIIKKIIKKIIKK]
MIC (Bacillus subtilis 168): 2.5 µM (≈ 3.81 µg/mL) | MIC (Escherichia coli ESBL): 20 µM (≈ 30.4 µg/mL) | MIC (Escherichia coli BL21): 20 µM (≈ 30.4 µg/mL) | MIC (Staphylococcus aureus): 20 µM (≈ 30.4 µg/mL)

CC[C@H](C)[C@H](NC(=O)CNC(=O)[C@H](CC(C)C)NC(=O)[C@H](CC(C)C)NC(=O)[C@H](C)NC(=O)[C@H](CO)NC(=O)[C@H](CCCCN)NC(=O)[C@@H](NC(=O)CN)[C@@H](C)CC)C(=O)N[C@@H](C)C(=O)N[C@@H](CCCCN)C(=O)N[C@@H](CC(N)=O)C(=O)N[C@H](C(=O)NCC(=O)N[C@@H](CCSC)C(=O)N[C@@H](CO)C(=O)N[C@@H](CC(C)C)C(=O)N[C@@H](CC(C)C)C(=O)N[C@@H](CCC(N)=O)C(=O)N[C@@H](CCCCN)C(=O)N[C@@H](C)C(=O)N[C@@H](CCC(N)=O)C(=O)N[C@H]1CSSC[C@@H](C(N)=O)NC(=O)[C@H](CO)NC(=O)CNC(=O)[C@H](CO)NC(=O)[C@H](CC(C)C)NC(=O)[C@H](CCCCN)NC1=O)C(C)C [GIKSALLGIAKNVGMSLLQKAQCKLSGSC]
MIC [9]: 8 µM and 22 µM | MIC (Vibrio cholerae N16961): 10 µM (≈ 29.2 µg/mL) | MIC (Staphylococcus aureus): 16 µM (≈ 46.7 µg/mL) | MIC (Klebsiella pneumoniae): 8 µM (≈ 23.3 µg/mL)

CC[C@H](C)[C@H](NC(=O)[C@@H](NC(=O)CN)C(C)C)C(=O)N[C@H](C(=O)N[C@@H](CC(=O)O)C(=O)N[C@@H](C)C(=O)N[C@@H](CC(C)C)C(=O)N[C@@H](CCCCN)C(=O)NCC(=O)N[C@@H](C)C(=O)N[C@@H](C)C(=O)N[C@@H](CCCCN)C(=O)N[C@H](C(=O)N[C@H](C(=O)N[C@@H](C)C(=O)N[C@@H](C)C(=O)N[C@@H](CCC(=O)O)C(=O)N[C@@H](CC(C)C)C(=O)N1CCC[C@H]1C(=O)N[C@@H](CCCN=C(N)N)C(=O)N[C@@H](CCCCN)C(=O)N[C@@H](C)C(=O)N[C@@H](Cc1cnc[nH]1)C(N)=O)C(C)C)[C@@H](C)O)[C@@H](C)O [GVITDALKGAAKTVAAELPRKAH]
MIC [17]: ≥ 100 µM | MIC [9]: > 100 µM | MIC (Escherichia coli D31): ≥ 100 µM | MIC [18]: > 100 µM | MIC [19]: ≥ 100 µM

CC(C)C[C@H](NC(=O)[C@@H](N)CC(C)C)C(=O)N[C@@H](CO)C(=O)N[C@@H](CCCN=C(N)N)C(=O)N[C@H](C(=O)N[C@@H](CC(=O)O)C(=O)O)C(C)C [LLSRVD]
MIC [20]: ≥ 182 µM | MIC [21]: ≥ 182 µM | MIC [22]: ≥ 182 µM | MIC [23]: > 182 µM | MIC [14]: 91.2 µM (≈ 64 µg/mL) | MIC [24]: ≥ 182 µM | MIC [25]: ≥ 182 µM | MIC [26]: ≥ 182 µM | MIC [27]: ≥ 182 µM | MIC [28]: ≥ 182 µM | MIC [29]: > 182 µM
